Test system: M. catarrhalis A894
Assay: Minimal inhibitory concentration (MIC), microdilution method in cation-adjusted Mueller-Hinton Broth (CLSI M7-A7)
Type: cell-based
Settings: strain A894; for MIC: Moraxella catarrhalis
Procedure: Minimal inhibitory concentrations (MICs; mg/1) were determined in cation-adjusted Mueller-Hinton Broth by a microdilution method following the description given in “Methods for Dilution Antimicrobial Susceptibility Tests for Bacteria that Grow Aerobically”, Approved standard, 7th ed., Clinical and Laboratory Standards Institute (CLSI) Document M7-A7, Wayne, Pa., USA, 2006.

Molecule	MIC for M. catarrhalis A894	MIC [µg/mL]
O=C1CSc2ccc(N3C[C@H](CCNCC4Cn5c(=O)ccc6cccc4c65)OC3=O)cc2N1 (mixture of isomers) [Example 61, (RS)-1-({2-[(S)-2-oxo-3-(3-oxo-3,4-dihydro-2H-benzo[1,4]thiazin-6-yl)-oxazolidin-5-yl]-ethylamino}-methyl)-1,2-dihydro-pyrrolo[3,2,1-U]quinolin-4-one]	≦0.031 mg/l	–
O=C1COc2ccc(N3C[C@@H](CCCN[C@@H]4Cn5c(=O)ccc6ccc(F)c4c65)OC3=O)nc2N1 [Example 190, (S)-9-fluoro-1-{3-[(R)-2-oxo-3-(3-oxo-3,4-dihydro-2H-pyrido[3,2-b][1,4]oxazin-6-yl)-oxazolidin-5-yl]-propylamino}-1,2-dihydro-pyrrolo[3,2,1-ij]quinolin-4-one]	–	≤ 0.031
O=C1CSc2ccc(N3C[C@H](CCCN[C@@H]4Cn5c(=O)ccc6ncc(F)c4c65)OC3=O)nc2N1 [Example 150, (S)-3-fluoro-4-{3-[(S)-2-oxo-3-(3-oxo-3,4-dihydro-2H-pyrido[3,2-b][1,4]thiazin-6-yl)-oxazolidin-5-yl]-propylamino}-4,5-dihydro-pyrrolo[3,2,1-de][1,5]naphthyridin-7-one]	–	≤ 0.031
N#Cc1ccc2ccc(=O)n3c2c1C(NCCC[C@@H]1CN(c2ccc4c(c2)NC(=O)CS4)C(=O)O1)C3 (mixture of isomers) [Example 117, (RS)-4-oxo-1-{3-[(R)-2-oxo-3-(3-oxo-3,4-dihydro-2H-benzo[1,4]thiazin-6-yl)-oxazolidin-5-yl]-propylamino}-1,2-dihydro-4H-pyrrolo[3,2,1-ij]quinoline-9-carbonitrile]	–	≤ 0.031
O=C1CSc2ccc(N3C[C@@H](CCCNC4Cn5c(=O)ccc6ncc(F)c4c65)OC3=O)cc2N1 (mixture of isomers) [Example 94, (RS)-3-fluoro-4-{3-[(R)-2-oxo-3-(3-oxo-3,4-dihydro-2H-benzo[1,4]thiazin-6-yl)-oxazolidin-5-yl]-propylamino}-4,5-dihydro-pyrrolo[3,2,1-de][1,5]naphthyridin-7-one]	–	≤ 0.031
O=C1COc2ccc(N3C[C@H](CCCNC4Cn5c(=O)ccc6ncc(F)c4c65)OC3=O)cc2N1 (mixture of isomers) [Example 97, (RS)-3-fluoro-4-{3-[(S)-2-oxo-3-(3-oxo-3,4-dihydro-2H-benzo[1,4]oxazin-6-yl)-oxazolidin-5-yl]-propylamino}-4,5-dihydro-pyrrolo[3,2,1-de][1,5]naphthyridin-7-one]	–	≤ 0.031
(1R,2R)-2-methoxymethyl-1-{3-[(R)-2-oxo-3-(3-oxo-3,4-dihydro-2H-benzo[1,4]thiazin-6-yl)-oxazolidin-5-yl]-propylamino}-1,2-dihydro-pyrrolo[3,2,1-ij]quinolin-4-one and (1S,2S)-2-methoxymethyl-1-{3-[(R)-2-oxo-3-(3-oxo-3,4-dihydro-2H-benzo[1,4]thiazin-6-yl)-oxazolidin-5-yl]-propylamino}-1,2-dihydro-pyrrolo[3,2,1-ij]quinolin-4-one [Example 165]	0.125 µg/mL	–
O=C1COc2ccc(N3C[C@@H](CNCC4Cn5c(=O)ccc6ncc(F)c4c65)OC3=O)cc2N1 (mixture of isomers) [Example 98, (RS)-3-fluoro-4-({[(R)-2-oxo-3-(3-oxo-3,4-dihydro-2H-benzo[1,4]oxazin-6-yl)-oxazolidin-5-ylmethyl]-amino}-methyl)-4,5-dihydro-pyrrolo[3,2,1-de][1,5]naphthyridin-7-one]	–	0.25
CCCc1ccc(N2C[C@@H](CCNC3Cn4c(=O)ccc5ccc(F)c3c54)OC2=O)cc1 (mixture of isomers) [Example 59, (RS)-9-fluoro-1-{2-[(R)-2-oxo-3-(4-propyl-phenyl)-oxazolidin-5-yl]-ethylamino}-1,2-dihydro-pyrrolo[3,2,1-ij]quinolin-4-one]	–	4
O=C1O[C@@H](CCNC2Cn3c(=O)ccc4ccc(F)c2c43)CN1c1ccc2c(c1)OCCO2 (mixture of isomers) [Example 107, (RS)-1-{2-[(S)-3-(2,3-dihydro-benzo[1,4]dioxin-6-yl)-2-oxo-oxazolidin-5-yl]-ethylamino}-9-fluoro-1,2-dihydro-pyrrolo[3,2,1-ij]quinolin-4-one]	–	8
O=C1CSc2ccc(N3C[C@@H](CCCN[C@H]4Cn5c(=O)ccc6ccc(F)c4c65)OC3=O)nc2N1 [Example 196, (R)-9-fluoro-1-{3-[(R)-2-oxo-3-(3-oxo-3,4-dihydro-2H-pyrido[3,2-b][1,4]thiazin-6-yl)-oxazolidin-5-yl]-propylamino}-1,2-dihydro-pyrrolo[3,2,1-ij]quinolin-4-one]	–	≤ 0.031
(1R,2S)-2-methyl-1-{3-[(R)-2-oxo-3-(3-oxo-3,4-dihydro-2H-pyrido[3,2-b][1,4]thiazin-6-yl)-oxazolidin-5-yl]-propylamino}-1,2-dihydro-pyrrolo[3,2,1-ij]quinolin-4-one and (1S,2R)-2-methyl-1-{3-[(R)-2-oxo-3-(3-oxo-3,4-dihydro-2H-pyrido[3,2-b][1,4]thiazin-6-yl)-oxazolidin-5-yl]-propylamino}-1,2-dihydro-pyrrolo[3,2,1-ij]quinolin-4-one [Example 168]	≦0.031 mg/l	–
O=C1CSc2ccc(N3C[C@H](CCN[C@@H]4Cn5c(=O)cnc6cccc4c65)OC3=O)cc2N1 [Example 55, (S)-6-{2-[(S)-2-oxo-3-(3-oxo-3,4-dihydro-2H-benzo[1,4]thiazin-6-yl)-oxazolidin-5-yl]-ethylamino}-5,6-dihydro-pyrrolo[1,2,3-de]quinoxalin-3-one]	–	≤ 0.031
O=C1CSc2ccc(N3C[C@H](CNCC4Cn5c(=O)ccc6ccc(F)c4c65)OC3=O)cc2N1 (mixture of isomers) [Example 30, (1RS)-9-fluoro-1-({[(S)-2-oxo-3-(3-oxo-3,4-dihydro-2H-benzo[1,4]thiazin-6-yl)-oxazolidin-5-ylmethyl]-amino}-methyl)-1,2-dihydro-pyrrolo[3,2,1-ij]quinolin-4-one]	–	0.031
O=C1CSc2ccc(N3C[C@@H](CCCN[C@@H]4c5c(F)ccc6ccc(=O)n(c56)[C@H]4CO)OC3=O)cc2N1 (relative stereo) [Example 182, (1R*,2R*)-9-fluoro-2-hydroxymethyl-1-{3-[(R)-2-oxo-3-(3-oxo-3,4-dihydro-2H-benzo[1,4]thiazin-6-yl)-oxazolidin-5-yl]-propylamino}-1,2-dihydro-pyrrolo[3,2,1-ij]quinolin-4-one]	–	≤ 0.031
O=C1CSc2ccc(N3C[C@@H](CCNCC4Cn5c(=O)ccc6cccc4c65)OC3=O)cc2N1 (mixture of isomers) [Example 53, (RS)-1-({2-[(R)-2-oxo-3-(3-oxo-3,4-dihydro-2H-benzo[1,4]thiazin-6-yl)-oxazolidin-5-yl]-ethylamino}-methyl)-1,2-dihydro-pyrrolo[3,2,1-U]quinolin-4-one]	≦0.031 mg/l	–
O=C1COc2ccc(N3C[C@@H](CCCN[C@H]4Cn5c(=O)ccc6ccc(F)c4c65)OC3=O)nc2N1 [Example 194, (R)-9-fluoro-1-{3-[(R)-2-oxo-3-(3-oxo-3,4-dihydro-2H-pyrido[3,2-b][1,4]oxazin-6-yl)-oxazolidin-5-yl]-propylamino}-1,2-dihydro-pyrrolo[3,2,1-ij]quinolin-4-one]	–	≤ 0.031
O=C1COc2ccc(N3C[C@H](CCCN[C@H]4Cn5c(=O)ccc6ncc(F)c4c65)OC3=O)cc2N1 [Example 141, (R)-3-fluoro-4-{3-[(S)-2-oxo-3-(3-oxo-3,4-dihydro-2H-benzo[1,4]oxazin-6-yl)-oxazolidin-5-yl]-propylamino}-4,5-dihydro-pyrrolo[3,2,1-de][1,5]naphthyridin-7-one]	–	≤ 0.031
O=C1CSc2ccc(N3C[C@@H](CN(CCO)CCC4Cn5c(=O)ccc6ccc(F)c4c65)OC3=O)cc2N1 (mixture of isomers) [Example 69, (RS)-9-fluoro-1-(2-{(2-hydroxy-ethyl)-[(R)-2-oxo-3-(3-oxo-3,4-dihydro-2H-benzo[1,4]thiazin-6-yl)-oxazolidin-5-ylmethyl]-amino}-ethyl)-1,2-dihydro-pyrrolo[3,2,1-ij]quinolin-4-one]	–	≤ 0.031
O=C1O[C@H](CNCCC2CN3C(=O)CCc4ccc(F)c2c43)CN1c1ccc2c(c1)OCCO2 (mixture of isomers) [Example 26, (1RS)-1-(2-{[(R)-3-(2,3-dihydro-benzo[1,4]dioxin-6-yl)-2-oxo-oxazolidin-5-ylmethyl]-amino}-ethyl)-9-fluoro-1,2,5,6-tetrahydro-pyrrolo[3,2,1-ij]quinolin-4-one]	–	0.25
O=C1CSc2ccc(N3C[C@@H](CCCNC4Cn5c(=O)cnc6cccc4c65)OC3=O)cc2N1 (mixture of isomers) [Example 20, (6RS)-6-{3-[(R)-2-oxo-3-(3-oxo-3,4-dihydro-2H-benzo[1,4]thiazin-6-yl)-oxazolidin-5-yl]-propylamino}-5,6-dihydro-pyrrolo[1,2,3-de]quinoxalin-3-one]	–	≤ 0.031
O=C1CSc2ccc(N3C[C@@H](CCCN(CCCO)C4Cn5c(=O)ccc6ccc(F)c4c65)OC3=O)cc2N1 (mixture of isomers) [Example 92, (RS)-9-fluoro-1-((3-hydroxy-propyl)-{3-[(R)-2-oxo-3-(3-oxo-3,4-dihydro-2H-benzo[1,4]thiazin-6-yl)-oxazolidin-5-yl]-propyl}-amino)-1,2-dihydro-pyrrolo[3,2,1-ij]quinolin-4-one]	–	≤ 0.031
CCOC(=O)c1ccc2c3c1ccc(=O)n3C[C@@H]2NCCC[C@H]1CN(c2ccc3c(c2)NC(=O)CS3)C(=O)O1 [Example 119, (R)-4-oxo-1-{3-[(S)-2-oxo-3-(3-oxo-3,4-dihydro-2H-benzo[1,4]thiazin-6-yl)-oxazolidin-5-yl]-propylamino}-1,2-dihydro-4H-pyrrolo[3,2,1-ij]quinoline-7-carboxylic acid ethyl ester]	–	≤ 0.031
O=C1CSc2ccc(N3C[C@@H](CCCN[C@@H]4Cn5c(=O)ccc6cccc4c65)OC3=O)cc2N1 [Example 72, (S)-1-{3-[(R)-2-oxo-3-(3-oxo-3,4-dihydro-2H-benzo[1,4]thiazin-6-yl)-oxazolidin-5-yl]-propylamino}-1,2-dihydro-pyrrolo[3,2,1-ij]quinolin-4-one]	–	≤ 0.031

— patent publication US9822114B2, “Tricyclic oxazolidinone antibiotic compounds” (Idorsia Pharmaceuticals Ltd, priority 2008, dated 2017)
